Molecules are shown by their SMILES. Activity calls are given as the source filed them. The rule behind the calls is not given here.

For test [1], the target named is T1, Protease (Human immunodeficiency virus 1, UniProt Q9YQ12). The test is described as follows: Inhibition of recombinant HIV1 protease after 30 mins by reverse phase HPLC.
The target in test [2] is Protease (Human immunodeficiency virus 1) (UniProt Q9YQ12). The test is described as follows: (§1) Inhibition of HIV1 protease dimerization by Zhang-Poorman kinetic assay.
The target of test [3] is T1, Protease. The test is described as follows: Competitive inhibition of HIV1 protease by Lineweaver-Burke plot analysis.
The target of test [4] is T1, Protease. Put plainly: Inhibition of HIV1 protease.
Test [5] has as its target T1, Protease. The description is as §1.
Test [6] is described as follows: Inhibition of HIV2 protease. Further details: species or system Human immunodeficiency virus 2.
Test [7] has as its target Human immunodeficiency virus type 1 integrase (Human immunodeficiency virus 1, UniProt Q7ZJM1). The test is described as follows: Inhibition of HIV1 integrase strand transfer activity.

As to `CC(C)=CCC/C(C)=C/CC/C(=C/Cc1cc(O)ccc1O)C(=O)O` [GANOMYCIN B], on Protease [1], the IC50 is 2.9 µM. In addition, the inhibition entry in test [2] was “inactive”. At Protease [3], this compound displayed a Ki of 4 µM.

Regarding `CC(C)=CCC/C(C)=C/CCC1=C[C@@H](c2cc(O)ccc2O)OC1=O` [GANOMYCIN I], the IC50 at Protease [1] is 21.9 µM. `CC(C)c1cc2c(c(O)c1O)[C@@]1(C(=O)O)CCCC(C)(C)[C@@H]1CC2` [CARNOSIC ACID] showed an IC50 at Protease [4] of 0.24 µM. In turn, `CC1=CC[C@H]([C@@H](C)[C@H]2CC[C@@]3(C)C4=C(C=C5C=CC(=O)OC(C)(C)[C@@H]5CC4)CC[C@]23C)OC1=O` [SCHISANLACTONE A] came in with a Ki on Protease [5] of 17.5 µM.

On to `COc1cc(/C=C/C(=O)CC(=O)/C=C/c2ccc(O)c(OC)c2)ccc1O` [CURCUMIN], for which the IC50 in test [6] was determined as 250 µM; in test [7], 40 µM; on Protease [4] it was 100 µM.
